# Source: PubChem BioAssay (NCI)
#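 Five compound concentrations were applied to cells in 96-well plates for 48 hours; endpoints were derived by simple linear interpolation of the resulting dose-response curve. The concentration for 50% growth inhibition is given as GI50. Definition used: TGI = concentration required for complete inhibition of growth.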
# What was measured:
# Assay in all cases: NCI anticancer screen, dose series, 48 h
# HOP-18 NSCLC = test system: HOP-18 NSCLC
# LXFL 529 NSCLC = test system: LXFL 529 NSCLC
# M19-MEL melanoma = test system: M19-MEL melanoma
# DMS 114 small cell lung = test system: DMS 114 small cell lung
# DLD-1 colon = test system: DLD-1 colon
# XF 498 CNS = test system: XF 498 CNS
# SN12K1 renal = test system: SN12K1 renal
Structure (SMILES),TGI (HOP-18 NSCLC),TGI (LXFL 529 NSCLC),TGI (M19-MEL melanoma),TGI (DMS 114 small cell lung),TGI (DLD-1 colon),TGI (XF 498 CNS),TGI (SN12K1 renal),GI50 (LXFL 529 NSCLC)
COc1ccc(C2S/C(=C\c3cccc([N+](=O)[O-])c3)C(=O)N2NC(=O)Cc2ccccc2)cc1 (stereo not drawn),> 100 µM,> 100 µM,> 100 µM,> 100 µM,> 100 µM,,,
C=CCn1c(=S)sc2c(=O)[nH]cnc21,,> 100 µM,> 100 µM,> 100 µM,> 100 µM,> 100 µM,,
CCC(/C=C/c1ccccc1)=N\N=C(\C=C\c1ccccc1)CC,,> 100 µM,> 100 µM,,> 100 µM,> 100 µM,,
CCOC(=O)c1cc(Cl)ccc1OC(N)=O,> 100 µM,,> 100 µM,> 100 µM,> 100 µM,> 100 µM,> 100 µM,
N.N.N.N.O=S(=O)([O-])[O-].[Co+3].[OH3+].[OH3+],,> 100 µM,,,> 100 µM,,,> 100 µM
